Where a name gives a salt, the structure may show the parent alone.
Tested on: MDA-231 cancer cells
Test: Inhibition of proliferation assay: cell confluence (IncuCyte live cell imaging)
Assay type: cell-based
Conditions: MDA-231 cells, IncuCyte imaging every 3 h over 4-5 d, relative confluence normalised to time zero
Text: Inhibition of Proliferation Assay
The confluence value is a surrogate for cell proliferation and growth. The value is expressed as a percent confluence, which represents the fraction of culture dish-surface that is occupied by cells. As the number of cells in the dish increases over time due to proliferation, so will their coverage of that surface increase. Expansion of the cell population on the cell culture-dish surface and confluence have mostly a linear relationship until the cells on the plate surface begin to reach saturation or maximum density.
Confluence is determined based on image analysis. Image based software can identify objects in the image field base on changes to pixel density in a grey scale image. The software can then assign a mask to those pixels within the object. Objects can be ‘gated’ out based on size and shape. To determine cell confluence, images of cells are first masked as objects. The surface area of the image that is masked is measured and compared to the total surface area of the culture dish surface to obtain a percent confluence.
MDA-231 cancer cells were obtained from ATCC. Cells were cultured in Dulbecco's Modified Eagle Medium (DMEM) supplemented with 10% Fetal Bovine Serum (FBS), 2 mM Glutamax, 1 mM Non Essential Amino Acid (NEAA) solution and 1 mM sodium pyruvate. […] Final DMSO concentrations were […]. Images were acquired with an IncuCyte Live Cell Imaging microscopy (Essen Bioscience) at every 3 h under cell culture conditions with 10× objective over 4-5 d. Cell confluence was calculated from one field of view per well using the IncuCyte in-built algorithm. Relative confluence values were obtained by normalising each value to the time zero value in each sample.

SMILES | % Confluence (concentration 10 μM) [%] | % Confluence (concentration 50 μM) [%]
C[C@H]1c2cccc(O)c2C(=O)C2=C(O)[C@]3(O)C(=O)C(C(N)=O)=C(O)[C@@H](N(C)C)[C@@H]3[C@@H](O)[C@@H]21 [Doxycycline, reference compound] | 98.7 | 91
COc1ccc([P+](CCCCCCCCCCCC(=O)Nc2ccc3c(c2O)C(=O)C2=C(O)[C@]4(O)C(=O)C(C(N)=O)=C(O)[C@@H](N(C)C)[C@@H]4[C@@H](O)[C@@H]2[C@H]3C)(c2ccc(OC)cc2)c2ccc(OC)cc2)cc1 [Example 1, (11-{[(5R,5aR,6S,6aR,7S,10aS)-9-carbamoyl-7-(dimethylamino)-1,6,8,10a,11-pentahydroxy-5-methyl-10,12-dioxo-5,5a,6,6a,7,10,10a,12-octahydrotetracen-2-yl]carbamoyl}undecyl)tris(4-methoxyphenyl)phosphonium formate] | 17 | 
C[C@H]1c2ccc(NC(=O)CCCCCCC[P+](C)(c3ccccc3)c3ccccc3)c(O)c2C(=O)C2=C(O)[C@]3(O)C(=O)C(C(N)=O)=C(O)[C@@H](N(C)C)[C@@H]3[C@@H](O)[C@@H]21.[Cl-] [Example 2, (7-{[(5R,5aR,6S,6aR,7S,10aS)-9-carbamoyl-7-(dimethylamino)-1,6,8,10a,11-pentahydroxy-5-methyl-10,12-dioxo-5,5a,6,6a,7,10,10a,12-octahydrotetracen-2-yl]carbamoyl}heptyl)(methyl)diphenylphosphonium chloride] | 91.7 | 
C[C@H]1c2ccc(NC(=O)CCCCCCC[P+](C)(C)c3ccccc3)c(O)c2C(=O)C2=C(O)[C@]3(O)C(=O)C(C(N)=O)=C(O)[C@@H](N(C)C)[C@@H]3[C@@H](O)[C@@H]21.[Cl-] [Example 3, (7-{[(5R,5aR,6S,6aR,7S,10aS)-9-carbamoyl-7-(dimethylamino)-1,6,8,10a,11-pentahydroxy-5-methyl-10,12-dioxo-5,5a,6,6a,7,10,10a,12-octahydrotetracen-2-yl]carbamoyl}heptyl)dimethylphenylphosphonium chloride] | 62.5 | 
C[C@H]1c2ccc(NC(=O)CCCCCCC[P+](C)(C)C)c(O)c2C(=O)C2=C(O)[C@]3(O)C(=O)C(C(N)=O)=C(O)[C@@H](N(C)C)[C@@H]3[C@@H](O)[C@@H]21.[Cl-] [Example 4, (7-{[(5R,5aR,6S,6aR,7S,10aS)-9-carbamoyl-7-(dimethylamino)-1,6,8,10a,11-pentahydroxy-5-methyl-10,12-dioxo-5,5a,6,6a,7,10,10a,12-octahydrotetracen-2-yl]carbamoyl}heptyl)trimethylphosphonium chloride] | 111.8 | 
C[C@H]1c2ccc(NC(=O)CCCCCCCCCCC[P+](C)(c3ccccc3)c3ccccc3)c(O)c2C(=O)C2=C(O)[C@]3(O)C(=O)C(C(N)=O)=C(O)[C@@H](N(C)C)[C@@H]3[C@@H](O)[C@@H]21.[Cl-] [Example 5, (11-{[(5R,5aR,6S,6aR,7S,10aS)-9-carbamoyl-7-(dimethylamino)-1,6,8,10a,11-pentahydroxy-5-methyl-10,12-dioxo-5,5a,6,6a,7,10,10a,12-octahydrotetracen-2-yl]carbamoyl}undecyl)(methyl)diphenylphosphonium chloride] | 24.9 | 
C[C@H]1c2ccc(NC(=O)CCCCCCCCCCC[P+](C)(C)C)c(O)c2C(=O)C2=C(O)[C@]3(O)C(=O)C(C(N)=O)=C(O)[C@@H](N(C)C)[C@@H]3[C@@H](O)[C@@H]21.[Cl-] [Example 6, (11-{[(5R,5aR,6S,6aR,7S,10aS)-9-carbamoyl-7-(dimethylamino)-1,6,8,10a,11-pentahydroxy-5-methyl-10,12-dioxo-5,5a,6,6a,7,10,10a,12-octahydrotetracen-2-yl]carbamoyl}undecyl)trimethylphosphonium chloride] | 57.7 | 
Cc1cccc([P+](CCCCCCCCCCCC(=O)Nc2ccc3c(c2O)C(=O)C2=C(O)[C@]4(O)C(=O)C(C(N)=O)=C(O)[C@@H](N(C)C)[C@@H]4[C@@H](O)[C@@H]2[C@H]3C)(c2cccc(C)c2)c2cccc(C)c2)c1.[Cl-] [Example 7, (11-{[(5R,5aR,6S,6aR,7S,10aS)-9-carbamoyl-7-(dimethylamino)-1,6,8,10a,11-pentahydroxy-5-methyl-10,12-dioxo-5,5a,6,6a,7,10,10a,12-octahydrotetracen-2-yl]carbamoyl}undecyl)tris(3-methylphenyl)phosphonium chloride] | 29.4 | 
C[C@H]1c2ccc(NC(=O)CCCCCCC[P+](c3ccccc3)(c3ccccc3)c3cnn(C)c3)c(O)c2C(=O)C2=C(O)[C@]3(O)C(=O)C(C(N)=O)=C(O)[C@@H](N(C)C)[C@@H]3[C@@H](O)[C@@H]21.[Cl-] [Example 8, (7-{[(5R,5aR,6S,6aR,7S,10aS)-9-carbamoyl-7-(dimethylamino)-1,6,8,10a,11-pentahydroxy-5-methyl-10,12-dioxo-5,5a,6,6a,7,10,10a,12-octahydrotetracen-2-yl]carbamoyl}heptyl)(1-methyl-1H-pyrazol-4-yl)diphenylphosphonium chloride] | 45.6 | 
C[C@H]1c2ccc(NC(=O)CCCCCCCC[P+](c3ccccc3)(c3ccccc3)c3cnn(C)c3)c(O)c2C(=O)C2=C(O)[C@]3(O)C(=O)C(C(N)=O)=C(O)[C@@H](N(C)C)[C@@H]3[C@@H](O)[C@@H]21.[Cl-] [Example 9, (8-{[(5R,5aR,6S,6aR,7S,10aS)-9-carbamoyl-7-(dimethylamino)-1,6,8,10a,11-pentahydroxy-5-methyl-10,12-dioxo-5,5a,6,6a,7,10,10a,12-octahydrotetracen-2-yl]carbamoyl}octyl)(1-methyl-1H-pyrazol-4-yl)diphenylphosphonium chloride] | 55.5 | 
C[C@H]1c2ccc(NC(=O)CCCCCCCCCCC[P+](c3ccccc3)(c3ccccc3)c3cnn(C)c3)c(O)c2C(=O)C2=C(O)[C@]3(O)C(=O)C(C(N)=O)=C(O)[C@@H](N(C)C)[C@@H]3[C@@H](O)[C@@H]21.[Cl-] [Example 10, (11-{[(5R,5aR,6S,6aR,7S,10aS)-9-carbamoyl-7-(dimethylamino)-1,6,8,10a,11-pentahydroxy-5-methyl-10,12-dioxo-5,5a,6,6a,7,10,10a,12-octahydrotetracen-2-yl]carbamoyl}undecyl)(1-methyl-1H-pyrazol-4-yl)diphenylphosphonium chloride] | 12.4 | 
C[C@H]1c2ccc(NC(=O)CCCCCCCCC[P+](c3ccccc3)(c3ccccc3)c3cnn(C)c3)c(O)c2C(=O)C2=C(O)[C@]3(O)C(=O)C(C(N)=O)=C(O)[C@@H](N(C)C)[C@@H]3[C@@H](O)[C@@H]21.[Cl-] [Example 11, (9-{[(5R,5aR,6S,6aR,7S,10aS)-9-carbamoyl-7-(dimethylamino)-1,6,8,10a,11-pentahydroxy-5-methyl-10,12-dioxo-5,5a,6,6a,7,10,10a,12-octahydrotetracen-2-yl]carbamoyl}nonyl)(1-methyl-1H-pyrazol-4-yl)diphenylphosphonium chloride] | 70.1 | 
C[C@H]1c2ccc(NC(=O)CCCCCCCCCC[P+](c3ccccc3)(c3ccccc3)c3cnn(C)c3)c(O)c2C(=O)C2=C(O)[C@]3(O)C(=O)C(C(N)=O)=C(O)[C@@H](N(C)C)[C@@H]3[C@@H](O)[C@@H]21.[Cl-] [Example 12, (10-{[(5R,5aR,6S,6aR,7S,10aS)-9-carbamoyl-7-(dimethylamino)-1,6,8,10a,11-pentahydroxy-5-methyl-10,12-dioxo-5,5a,6,6a,7,10,10a,12-octahydrotetracen-2-yl]carbamoyl}decyl)(1-methyl-1H-pyrazol-4-yl)diphenylphosphonium chloride] | 45.4 | 
CC(C)[P+](CCCCCCCCCCCC(=O)Nc1ccc2c(c1O)C(=O)C1=C(O)[C@]3(O)C(=O)C(C(N)=O)=C(O)[C@@H](N(C)C)[C@@H]3[C@@H](O)[C@@H]1[C@H]2C)(c1ccccc1)c1ccccc1 [Example 13, (11-{[(5R,5aR,6S,6aR,7S,10aS)-9-carbamoyl-7-(dimethylamino)-1,6,8,10a,11-pentahydroxy-5-methyl-10,12-dioxo-5,5a,6,6a,7,10,10a,12-octahydrotetracen-2-yl]carbamoyl}undecyl)diphenyl(propan-2-yl)phosphonium chloride] | 35.1 | 
